Measurements: patent EP4707280A1, “1,4-CINEOLE DERIVATIVE AND INTERMEDIATE THEREOF, HERBICIDE CONTAINING SAID DERIVATIVE AS ACTIVE INGREDIENT, METHOD FOR USING HERBICIDE, AND METHOD FOR PREPARING AGROCHEMICAL COMPOSITION” (HOKKO CHEMICAL INDUSTRY CO., LTD., priority 2023, dated 2024)

Legend:
Assay type in all cases: in vivo
[1] = system: Echinochloa crus-galli var. formosensis; assay: Test Example 1: herbicidal effect test by soil application in paddy rice; conditions: Echinochloa crus-galli, soil, 336 h; 120 g active ingredient per 10 ares; applied immediately after sowing, flooded pots; 14 days after application; read-out: weed inhibition rate
Method in brief: (§1)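 Soil-applied test under flooded paddy conditions (~3 cm water) in a glass greenhouse. Seeds were sown shallow (0–1 cm, 30 per species), then compound was dripped in as diluted emulsifiable concentrate at 120 g a.i./10 a.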

Scirpus juncoides [2] = assay: as above; conditions: Schoenoplectiella juncoides, soil, 336 h; 120 g active ingredient per 10 ares; applied immediately after sowing, flooded pots; 14 days after application; read-out: weed inhibition rate
Method in brief: as §1

[3] = system: Echinochloa crus-galli var. formosensis; assay: Test Example 2: herbicidal effect test by application during growth period of paddy rice; conditions: Echinochloa crus-galli; 120 g per 10 ares; applied seven days after sowing, flooded pots; 14 days after application; read-out: weed inhibition rate
Method in brief: (§2)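 Paddy soil in flooded pots (water depth about 3 cm) was sown with weed seeds and kept in a glass greenhouse. Seven days after sowing, a diluted emulsifiable concentrate was applied by dropper at 120 g active ingredient per 10 ares. Weed inhibition was evaluated 14 days after application, in duplicate.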

Scirpus juncoides [4] = assay: as above; conditions: Schoenoplectiella juncoides; 120 g per 10 ares; applied seven days after sowing, flooded pots; 14 days after application; read-out: weed inhibition rate
Method in brief: as §2

Digitaria ciliaris [5] = assay: Test Example 3: herbicidal effect test by soil application in upland field; conditions: Digitaria ciliaris, 120 g per 10 ares, sprayed one day after sowing, 14 days after application, read-out: weed inhibition rate
Method in brief: (§3)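 Pre-emergence test: seeds mixed into top 1 cm of alluvial loam upland soil in pots; emulsifiable concentrate diluted in water sprayed on soil one day after sowing at 100 L/10 a, 120 g a.i./10 a. Weed inhibition rate (%) scored at 14 days, in duplicate.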

Echinochloa crus-galli [6] = assay: as above; conditions: Echinochloa crus-galli, 120 g per 10 ares, sprayed one day after sowing, 14 days after application, read-out: weed inhibition rate
Method in brief: as §3

Digitaria ciliaris [7] = assay: Test Example 4: herbicidal effect test by stem and leaf treatment in upland field; conditions: Digitaria ciliaris; 120 g per 10 ares; sprayed seven days after sowing, upland soil; 14 days after application; read-out: weed inhibition rate
Echinochloa crus-galli [8] = assay: as above; conditions: Echinochloa crus-galli; 120 g per 10 ares; sprayed seven days after sowing, upland soil; 14 days after application; read-out: weed inhibition rate
[9] = system: Echinochloa crus-galli var. formosensis; assay: Test Example 5: herbicidal effect test by soil application in paddy rice (low dose); conditions: Echinochloa crus-galli, soil, 336 h; 7.5 g per 10 ares; applied immediately after sowing, flooded pots; 14 days after application; read-out: weed inhibition rate
Method in brief: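 Paddy-soil pots, weeds sown 0–1 cm deep and flooded to about 3 cm in a greenhouse. Emulsifiable concentrate diluted in water and dropped in right after sowing at 7.5 g active ingredient per 10 ares. Duplicates; effect scored 14 days after application.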

[10] = system: Echinochloa crus-galli var. formosensis; assay: Test Example 6: herbicidal effect test by application during growth period of paddy rice (low dose); conditions: Echinochloa crus-galli; 7.5 g per 10 ares; applied seven days after sowing, flooded pots; 14 days after application; read-out: weed inhibition rate
Method in brief: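 Paddy soil in flooded Wagner pots (about 3 cm water), weeds sown at 0–1 cm, 30 seeds each, grown in a glass greenhouse. Seven days after sowing, water-diluted emulsifiable concentrate was dropped into the water at 7.5 g active ingredient per 10 ares. Weed inhibition rate (%) was scored 14 days after application, in duplicate.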

Digitaria ciliaris [11] = assay: Test Example 7: herbicidal effect test by soil application in upland field (low dose); conditions: Digitaria ciliaris, 7.5 g per 10 ares, sprayed one day after sowing, 14 days after application, read-out: weed inhibition rate
Method in brief: (§4)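 Upland alluvial loam pots, seeds mixed into top 1 cm of soil; one day after sowing, diluted emulsifiable concentrate sprayed on soil at 100 L/10 a, giving 7.5 g active ingredient/10 a. Duplicate pots; weed inhibition rate (%) scored 14 days after application.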

Echinochloa crus-galli [12] = assay: as above; conditions: Echinochloa crus-galli, 7.5 g per 10 ares, sprayed one day after sowing, 14 days after application, read-out: weed inhibition rate
Method in brief: as §4

Digitaria ciliaris [13] = assay: Test Example 8: herbicidal effect test by stem and leaf treatment in upland field (low dose); conditions: Digitaria ciliaris; 7.5 g per 10 ares; sprayed seven days after sowing, upland soil; 14 days after application; read-out: weed inhibition rate
Echinochloa crus-galli [14] = assay: as above; conditions: Echinochloa crus-galli; 7.5 g per 10 ares; sprayed seven days after sowing, upland soil; 14 days after application; read-out: weed inhibition rate

CC(C)C12CC(OCc3c(F)cccc3Br)C(C)(CC1Cl)O2 (stereo not shown) [1-1611, 2-[(2-bromo-6-fluorophenyl)methoxy]-5-chloro-1-methyl-4-isopropyl-7-oxabicyclo[2.2.1]heptane]
≥ 80%: pest or weed control at 1200 g/ha [1] | pest or weed control at 1200 g/ha (Scirpus juncoides [2]) | inhibition at 1200 g/ha [3] | inhibition at 1200 g/ha (Scirpus juncoides [4]) | inhibition at 1200 g/ha (Digitaria ciliaris [5]) | inhibition at 1200 g/ha (Echinochloa crus-galli [6]) | inhibition at 1200 g/ha (Digitaria ciliaris [7]) | inhibition at 1200 g/ha (Echinochloa crus-galli [8]) | inhibition at 75 g/ha [9] | inhibition at 75 g/ha [10] | inhibition at 75 g/ha (Digitaria ciliaris [11]) | inhibition at 75 g/ha (Echinochloa crus-galli [12]) | inhibition at 75 g/ha (Digitaria ciliaris [13]) | inhibition at 75 g/ha (Echinochloa crus-galli [14])

CC(C)C12CC(OCc3c(F)cccc3Br)C(C)(CC1I)O2 (stereo not shown) [1-1612, 5-[(2-bromo-6-fluoro-phenyl)methoxy]-2-iodo-1-isopropyl-4-methyl-7-oxabicyclo[2.2.1]heptane]
≥ 80%: pest or weed control at 1200 g/ha [1] | pest or weed control at 1200 g/ha (Scirpus juncoides [2]) | inhibition at 1200 g/ha [3] | inhibition at 1200 g/ha (Scirpus juncoides [4]) | inhibition at 1200 g/ha (Digitaria ciliaris [5]) | inhibition at 1200 g/ha (Echinochloa crus-galli [6]) | inhibition at 1200 g/ha (Digitaria ciliaris [7]) | inhibition at 1200 g/ha (Echinochloa crus-galli [8]) | inhibition at 75 g/ha [9] | inhibition at 75 g/ha [10] | inhibition at 75 g/ha (Digitaria ciliaris [11]) | inhibition at 75 g/ha (Echinochloa crus-galli [12]) | inhibition at 75 g/ha (Digitaria ciliaris [13]) | inhibition at 75 g/ha (Echinochloa crus-galli [14])

CC(C)[C@]12C[C@@H](OCc3c(F)cccc3Br)[C@](C)(C[C@@H]1Cl)O2 [1-1613, (1R,2S,4S,5R)-5-[(2-bromo-6-fluoro-phenyl)methoxy]-2-chloro-1-isopropyl-4-methyl-7-oxabicyclo[2.2.1]heptane]
≥ 80%: pest or weed control at 1200 g/ha [1] | pest or weed control at 1200 g/ha (Scirpus juncoides [2]) | inhibition at 1200 g/ha [3] | inhibition at 1200 g/ha (Scirpus juncoides [4]) | inhibition at 1200 g/ha (Digitaria ciliaris [5]) | inhibition at 1200 g/ha (Echinochloa crus-galli [6]) | inhibition at 1200 g/ha (Digitaria ciliaris [7]) | inhibition at 1200 g/ha (Echinochloa crus-galli [8]) | inhibition at 75 g/ha [9] | inhibition at 75 g/ha [10] | inhibition at 75 g/ha (Digitaria ciliaris [11]) | inhibition at 75 g/ha (Echinochloa crus-galli [12]) | inhibition at 75 g/ha (Digitaria ciliaris [13]) | inhibition at 75 g/ha (Echinochloa crus-galli [14])

CC(C)[C@]12C[C@@H](OCc3c(F)cccc3Br)[C@](C)(C[C@@H]1I)O2 [1-1614, (1R,2S,4S,5R)-5-[(2-bromo-6-fluoro-phenyl)methoxy]-2-iodo-1-isopropyl-4-methyl-7-oxabicyclo[2.2.1]heptane]
≥ 80%: pest or weed control at 1200 g/ha [1] | pest or weed control at 1200 g/ha (Scirpus juncoides [2]) | inhibition at 1200 g/ha [3] | inhibition at 1200 g/ha (Scirpus juncoides [4]) | inhibition at 1200 g/ha (Digitaria ciliaris [5]) | inhibition at 1200 g/ha (Echinochloa crus-galli [6]) | inhibition at 1200 g/ha (Digitaria ciliaris [7]) | inhibition at 1200 g/ha (Echinochloa crus-galli [8]) | inhibition at 75 g/ha [9] | inhibition at 75 g/ha [10] | inhibition at 75 g/ha (Digitaria ciliaris [11]) | inhibition at 75 g/ha (Echinochloa crus-galli [12]) | inhibition at 75 g/ha (Digitaria ciliaris [13]) | inhibition at 75 g/ha (Echinochloa crus-galli [14])

CCNC(=O)O[C@H]1C[C@]2(C)O[C@@]1(C(C)C)C[C@H]2OCc1ccccc1F [1-1615, [(1R,2S,4S,5R)-5-[(2-fluorophenyl)methoxy]-1-isopropyl-4-methyl-7-oxabicyclo[2.2.1]heptan-2-yl] N-ethylcarbamate]
≥ 80%: pest or weed control at 1200 g/ha [1] | pest or weed control at 1200 g/ha (Scirpus juncoides [2]) | inhibition at 1200 g/ha [3] | inhibition at 1200 g/ha (Scirpus juncoides [4]) | inhibition at 1200 g/ha (Digitaria ciliaris [5]) | inhibition at 1200 g/ha (Echinochloa crus-galli [6]) | inhibition at 1200 g/ha (Digitaria ciliaris [7]) | inhibition at 1200 g/ha (Echinochloa crus-galli [8]) | inhibition at 75 g/ha [9] | inhibition at 75 g/ha [10] | inhibition at 75 g/ha (Digitaria ciliaris [11]) | inhibition at 75 g/ha (Echinochloa crus-galli [12]) | inhibition at 75 g/ha (Digitaria ciliaris [13]) | inhibition at 75 g/ha (Echinochloa crus-galli [14])

CC(C)=CCO[C@@H]1C[C@@]2(C(C)C)C=C[C@]1(C)O2 [3-693, (1R,4S,5R)-1-isopropyl-4-methyl-5-(3-methylbut-2-enoxy)-7-oxabicyclo[2.2.1]hept-2-ene]
≥ 80%: pest or weed control at 1200 g/ha [1] | pest or weed control at 1200 g/ha (Scirpus juncoides [2]) | inhibition at 1200 g/ha [3] | inhibition at 1200 g/ha (Scirpus juncoides [4]) | inhibition at 1200 g/ha (Digitaria ciliaris [5]) | inhibition at 1200 g/ha (Echinochloa crus-galli [6]) | inhibition at 1200 g/ha (Digitaria ciliaris [7]) | inhibition at 1200 g/ha (Echinochloa crus-galli [8]) | inhibition at 75 g/ha [9] | inhibition at 75 g/ha [10] | inhibition at 75 g/ha (Digitaria ciliaris [11]) | inhibition at 75 g/ha (Echinochloa crus-galli [12]) | inhibition at 75 g/ha (Digitaria ciliaris [13]) | inhibition at 75 g/ha (Echinochloa crus-galli [14])

CC(C)[C@]12C=C[C@](C)(O1)[C@H](OCC1CCCCC1)C2 [3-697, (1R,4S,5R)-5-(cyclohexylmethoxy)-1-isopropyl-4-methyl-7-oxabicyclo[2.2.1]hept-2-ene]
≥ 80%: pest or weed control at 1200 g/ha [1] | pest or weed control at 1200 g/ha (Scirpus juncoides [2]) | inhibition at 1200 g/ha [3] | inhibition at 1200 g/ha (Scirpus juncoides [4]) | inhibition at 1200 g/ha (Digitaria ciliaris [5]) | inhibition at 1200 g/ha (Echinochloa crus-galli [6]) | inhibition at 1200 g/ha (Digitaria ciliaris [7]) | inhibition at 1200 g/ha (Echinochloa crus-galli [8]) | inhibition at 75 g/ha [9] | inhibition at 75 g/ha [10] | inhibition at 75 g/ha (Digitaria ciliaris [11]) | inhibition at 75 g/ha (Echinochloa crus-galli [12]) | inhibition at 75 g/ha (Digitaria ciliaris [13]) | inhibition at 75 g/ha (Echinochloa crus-galli [14])

CC(C)C12C=CC(C)(O1)C(OCc1ccccc1)C2 (stereo not shown) [3-752, 4-methyl-5-phenylmethoxy-1-isopropyl-7-oxabicyclo[2.2.1]hept-2-ene]
≥ 80%: pest or weed control at 1200 g/ha [1] | pest or weed control at 1200 g/ha (Scirpus juncoides [2]) | inhibition at 1200 g/ha [3] | inhibition at 1200 g/ha (Scirpus juncoides [4]) | inhibition at 1200 g/ha (Digitaria ciliaris [5]) | inhibition at 1200 g/ha (Echinochloa crus-galli [6]) | inhibition at 1200 g/ha (Digitaria ciliaris [7]) | inhibition at 1200 g/ha (Echinochloa crus-galli [8]) | inhibition at 75 g/ha [9] | inhibition at 75 g/ha [10] | inhibition at 75 g/ha (Digitaria ciliaris [11]) | inhibition at 75 g/ha (Echinochloa crus-galli [12]) | inhibition at 75 g/ha (Digitaria ciliaris [13]) | inhibition at 75 g/ha (Echinochloa crus-galli [14])
